In patent publication US10780067B2, “Endoxifen for local transdermal therapy to the breast” (Northwestern University, priority 2016, dated 2020):
Values joined by “and” are separate entries in the source; they are usually repeats but may differ in a detail not shown here. Equal values may be shown once.

What was measured:
[1] = Study 1: oral tamoxifen vs transdermal 4-OHT and endoxifen gel, mammary and plasma concentrations; conditions: for concentration at 6 weeks: athymic nude (Hsd:RHFoxn1^rnu/rnu), rat, oral, 3 mg/kg/day
Procedure: (Z) tamoxifen was prepared as 3 mg/mL in sesame oil. For transdermal gel formulations, 4-OHT (E:Z=50:50) (1 mg/mL), (Z) endoxifen (1 mg/mL), and telapristone (1.5 mg/mL) were prepared in 60% (v/v) ethanol-phosphate buffer containing 0.5% (v/v) oleic acid [13] with 1.5% (w/v) Klucel hydroxypropyl cellulose.
Athymic nude rats (Hsd:RHFoxn1^rnu/rnu, Harlan Laboratories, Inc.) were provided with standard laboratory food and water ad libitum. […] In the gel groups, animals were anesthetized with isoflurane inhalation; the skin surface of axillary mammary glands was cleaned with alcohol swabs and air-dried; 0.1 mL drug gel was applied using a template with an exposed ellipse (π×R1×R2=π1 cm×0.6 cm) around the no. 2 nipple on each side and allowed to dry (total of 1, 0.5 mg/kg/day on each side); animals wore jackets fitted over the forelegs, to prevent loss of gel through grooming.
In both studies, rats were euthanized after 6 weeks of treatment for blood and tissue collections. The treated skin area was cleansed with alcohol prior to dissection. Blood samples were collected from the heart. We collected the whole mammary glands (1 axillary and 1 inguinal) per animal and measured their drug concentrations separately.
The concentrations of all the drugs used in rats and humans were determined by liquid chromatography-tandem mass spectroscopy (API 3000; AB SCIEX, Foster City, Calif., USA). […] The mobile phase was A: 0.1% formic acid in water (v/v) and B: 0.1% formic acid in acetonitrile (v/v). Details of sample processing and quantitation methods are described below. The lowest limits of quantification (LLOQ) were as follow: tamoxifen and N-desmethyl tamoxifen (NDT) (plasma 10 ng/mL; tissue 40 ng/g); 4-OHT and endoxifen (plasma 0.5 ng/mL; tissue 2 ng/g); telapristone and N-desmethyl telapristone (d-telapristone) (plasma 1 ng/mL; tissue 1.5 ng/g); and diclofenac (plasma 0.5 ng/mL; tissue 2 ng/g).
For preclinical studies, the summary statistics as medians and interquartile range (IQR) were reported by treatment group for each analyte obtained from plasma, axillary, and inguinal mammary glands. Concentration differences of each analyte between treatment groups and differences between mammary glands within each treatment group were assessed via the Wilcoxon rank-sum test, and the Wilcoxon signed rank-sum test, respectively.
(Z) tamoxifen and metabolites [(Z) NDT, (E) 4-OHT, and (Z) 4-OHT, (Z) endoxifen] were determined using LC-MS/MS (API 3000; AB SCIEX, Foster City, Calif.). A 100 μL aliquot of plasma was mixed with 200 μL of acetonitrile containing 1 ng each of the deuterated analogs of the analytes (TRC, Toronto, Canada). […]

[2] = Plasma, breast adipose tissue and NAF concentrations of tamoxifen and its metabolites (LC-MS/MS), presurgical trial; format: in vivo, human
From the text: (§1) All participants provided informed consent. Baseline assessments included a history and physical, explanation of gel application, completion of the Breast Cancer Prevention Trial Eight Symptom Scale (BESS) questionnaire, collection of a venous blood sample, and collection of nipple aspirate fluid (NAF) from NAF yielders. […] Treatment began within 5 days post-randomization and ended on the day prior to surgical resection. Participants were instructed to apply the gel to the entire skin envelope of each breast each morning, after a shower. Duration of therapy was 6-10 weeks. Compliance was assessed through participant diaries, counts of returned pills and of returned gel canisters. Participants who took at least 80% of the prescribed dose were considered compliant.
Assessments similar to those performed at baseline were repeated on the day prior to, or on the morning of surgery. During surgery, breast adipose tissue from the surgical sample was snap frozen and stored at −80° C. for measurement of tamoxifen and metabolites. The samples were obtained from a location adjacent to the DCIS lesion to provide uniformity between participants undergoing breast conservation and mastectomy. The paraffin block of the core and excision samples were acquired by the recruiting institution and 10 sections from each specimen were submitted to the NU Pathology Core Facility. The sections were cut in batches (with pre- and post-treatment samples in the same batch), shipped cold, and processed for immunohistochemistry within four weeks.
(Z)-tamoxifen, (Z)-NDT, (E) and (Z)-4-OHT, and (Z)-endoxifen were measured by liquid chromatography-tandem mass spectrometry with a turbo ion spray interface operating in positive mode (API 3000; AB SCIEX, Foster City, Calif.). […] For analysis of NAF, samples were collected in a capillary tube and diluted with 200 μL of phosphate buffered saline; 100 μL of the diluted NAF sample was used for analysis. Breast adipose tissue samples, 25 mg, were minced and treated with 125 μL of […] and extracted as described above.
Retention times for (Z)-tamoxifen, (Z)-NDT, (Z)-4-OHT, (E)-4-OHT and (Z)-endoxifen were 7.3, 6.8, 5.1, 4.7 and 4.5 min, respectively. […] In three participants, matched samples were not available: breast adipose tissue was not collected in two, and the plasma sample was missing in one.
Since the fraction of E and Z isoforms of 4-OHT was of particular interest, we used an additional validated method to study plasma concentrations of these metabolites in a different laboratory (Eurofins Medinet, Chantilly, Va.): Plasma from blood samples collected in lithium-heparin tubes was frozen at −20° C., shipped in batches on dry ice to them Eurofins Medinet central laboratory; LC-MS/MS was used for the simultaneous determination of (E) 4-OHT and (Z) 4-OHT, with a lower limit of quantitation (LOQ) of 10 pg/mL and upper LOQ of 10,000 pg/mL. Eurofins Medinet developed and validated them method for BHR Pharma, in accordance with the FDA Guidance on Bioanalytical Method Validation.

[3] = 28 days; cited from earlier work
MCF7 xenograft = conditions: simulation using human PK; cited from earlier work
[4] = BESS quality of life questionnaire and CTCAE adverse events, presurgical trial; format: in vivo, human
From the text: as §1
The BESS Questionnaire was repeated at day 15 and at the end of treatment (1 day before surgery or day of surgery), and the post-surgical visit (approximately 7-14 days after surgery).
For continuous variables in the immunochemistry, drug concentration, and blood coagulation data, means and standard deviations are reported; the significance of changes between baseline and post-treatment within groups were evaluated with the paired t-test, and differences between treatment groups assessed using the unpaired t-test. For categorized demographic data, we examined the association of these variables with treatment group via Fisher's exact test. For the analysis of quality of life, the 33 symptoms in the BESS Questionnaire were divided into eight clusters as described by Cella et. al.. The mean score within each cluster was used to evaluate significance of changes from baseline to posttreatment within groups as well as the differences between treatment groups using the Wilcoxon signed-rank test.

total protein S = experiment: Plasma total protein S ELISA, presurgical trial; format: in vivo, human; conditions: mean ± SD
Procedure: (§2) Plasma samples collected with anticoagulant K3-EDTA were used for human IGF-1 and SHBG assays, and coagulation protein assays (factor VIII, factor IX, von Willebrand factor, and protein S)[23]. The human IGF-1 and SHBG assays were performed with Quantikine Enzyme-linked immunosorbent assay (ELISA) Kits (R&D Systems, Cat # DG100 for IGF-1, and Cat # DSHBGO for SHBG assay). The lower limit of detection was 56 pg/ml, and 5 pmol/L; % CV values were 4.3 and 5.6 for IGF-1, and SHBG assay, respectively. Factor VIII, and factor IX were determined with VisuLize™ antigen ELISA kits (Affinity Biologicals Inc.). von Willebrand factor was measured with immune-turbidimetric assay (Diagnostica Stago Inc. Cat #00518) by STAR analyzer, and total protein S was assayed with an ELISA kit (REAADSR Inc.)

SHBG = experiment: Plasma SHBG ELISA, presurgical trial; format: in vivo, human; conditions: mean ± SD
Procedure: as §2

[5] = at surgery after 6-10 weeks, mean ± SD, LLOQ 3 ng/g

CC/C(=C(\c1ccccc1)c1ccc(OCCN(C)C)cc1)c1ccccc1 [Tamoxifen, (Z)-tamoxifen]
concentration at 6 weeks ([1]; axillary mammary gland): 44.2 ng/g
concentration at 6 weeks ([1]; inguinal mammary gland): 69.6 ng/g
concentration at 6 weeks ([1]; plasma): 8 ng/mL
deaths, weight loss, general health, skin irritation ([1]; rats, end of 6 week experiment): no deaths, no weight loss, and no skin irritation
(E) 4-OHT concentration, plasma ([2]; after 6-10 weeks, mean ± SD, LLOQ 1 ng/mL): BQL
(Z) Tamoxifen concentration, plasma ([2]; after 6-10 weeks, mean ± SD, LLOQ 20 ng/mL): 90 ± 45 ng/mL
(E) 4-OHT concentration, breast adipose tissue [2, 5]: BQL
(Z) Tamoxifen concentration, breast adipose tissue [2, 5]: 2959 ± 1035 ng/g
plasma concentration of tamoxifen, individual participants ([2]; participants A, B and one with undetectable NAF levels, listed as oral-T): 54 ng/mL and 94.3 ng/mL and 160 ng/mL
NAF concentration of endoxifen ([2]; post-treatment nipple aspirate fluid): undetectable
NAF concentration of tamoxifen, individual participants ([2]; post-treatment nipple aspirate fluid, participants A, B, listed as oral-T): 320 ng/mL and 182 ng/mL
NAF concentration of 4-OHT ((Z) 4-OHT), individual participants ([2]; post-treatment nipple aspirate fluid, participants C, D): undetectable
ENX concentration in serum, oral TAM 1 mg daily [3]: 3 ng/mL
ENX concentration in serum, oral TAM 5 mg daily [3]: 9 ng/mL
ENX concentration in serum, oral TAM 20 mg daily [3]: 38 ng/mL
ENX concentration in tumor tissue, oral TAM 1 mg daily [3]: 31 ng/g
ENX concentration in tumor tissue, oral TAM 5 mg daily [3]: 80 ng/g
ENX concentration in tumor tissue, oral TAM 20 mg daily [3]: 340 ng/g
TGI at day 21, 20 mg/day oral (MCF7 xenograft): 63%
BESS Vasomotor symptom cluster, baseline ([4]; hot flashes, night sweats, cold sweats, mean score ± SD): 0.33 ± 0.45
BESS Bladder symptom cluster, Changes from baseline ([4]; mean score ± SD): 0.11 ± 0.49
BESS Bladder symptom cluster, baseline ([4]; mean score ± SD): 0.14 ± 0.36
BESS Bladder symptom cluster, post-treatment ([4]; mean score ± SD): 0.25 ± 0.33
BESS Body Image symptom cluster, Changes from baseline ([4]; mean score ± SD): −0.04 ± 0.87
BESS Body Image symptom cluster, baseline ([4]; mean score ± SD): 0.68 ± 0.77
BESS Body Image symptom cluster, post-treatment ([4]; mean score ± SD): 0.64 ± 0.89
BESS Body pain symptom cluster, Changes from baseline ([4]; mean score ± SD): 0.43 ± 0.92
BESS Body pain symptom cluster, baseline ([4]; mean score ± SD): 0.76 ± 1.12
BESS Body pain symptom cluster, post-treatment ([4]; mean score ± SD): 1.19 ± 1.11
BESS Cognitive symptom cluster, Changes from baseline ([4]; mean score ± SD): 0.10 ± 0.86
BESS Cognitive symptom cluster, baseline ([4]; mean score ± SD): 0.62 ± 0.61
BESS Cognitive symptom cluster, post-treatment ([4]; mean score ± SD): 0.71 ± 1.18
BESS Gastrointestinal symptom cluster, Changes from baseline ([4]; mean score ± SD): −0.10 ± 0.24
BESS Gastrointestinal symptom cluster, baseline ([4]; mean score ± SD): 0.12 ± 0.31
BESS Gastrointestinal symptom cluster, post-treatment ([4]; mean score ± SD): 0.02 ± 0.09
BESS Sexual problems symptom cluster, Changes from baseline ([4]; mean score ± SD): −0.21 ± 0.54
BESS Sexual problems symptom cluster, baseline ([4]; mean score ± SD): 0.32 ± 0.72
BESS Sexual problems symptom cluster, post-treatment ([4]; mean score ± SD): 0.11 ± 0.40
BESS Vaginal symptom cluster, Changes from baseline ([4]; mean score ± SD): 0.07 ± 0.19
BESS Vaginal symptom cluster, baseline ([4]; mean score ± SD): 0.00 ± 0.00
BESS Vaginal symptom cluster, post-treatment ([4]; mean score ± SD): 0.07 ± 0.19
BESS Vasomotor symptom cluster, Changes from baseline ([4]; mean score ± SD): 0.55 ± 1.05
BESS Vasomotor symptom cluster, post-treatment ([4]; mean score ± SD): 0.88 ± 1.26
BESS Vaginal symptom cluster, baseline ([4]; mean score ± SD, listed as oral-T): 0.00
serious adverse events (CTCAE) ([4]; whole study): no serious adverse events
% Total Protein S post-treatment (total protein S; plasma after 6-10 weeks): 91.6 ± 12.2%
% Total Protein S baseline (total protein S; plasma before treatment): 94.3 ± 8.9%
% Total Protein S Changes from baseline (total protein S; plasma): −2.7 ± 9.3%
SHBG post-treatment (SHBG; plasma after 6-10 weeks): 143.9 ± 69.0 ng/mL
SHBG baseline (SHBG; plasma before treatment): 98.4 ± 45.0 ng/mL
SHBG Changes from baseline (SHBG; plasma): 45.5 ± 40.2 ng/mL
